# Legend:
# spinal cord of EAE mice = experiment: H&E histology, infiltration of inflammatory cells and cuffed vessels in spinal cord of EAE mice; assay type: in vivo; conditions: GTB from 8 dpt, sacrificed 16 dpt
# Description: On 14 dpi (first chronic phase), five mice from each of the following groups (control, EAE, EAE+GTB, and EAE+vehicle) were anesthetized. After perfusion with phosphate buffered saline (PBS) (pH 7.4) and then with 4% (w/v) paraformaldehyde solution in PBS, cerebellum and whole spinal cord was dissected out from each mouse. The tissues were further fixed and then divided into halves: one-half was used for histological staining whereas the other half was used for myelin staining. For histological analysis, routine histology was performed to obtain perivascular cuffing and morphological details of CNS tissues of EAE mice. Paraformaldehyde-fixed tissues were embedded in paraffin, and serial sections (4 μm) were cut. Sections were stained with conventional H&E staining method. Digital images were collected under bright-field setting using an ×40 objective. Slides were assessed in a blinded fashion by three examiners for inflammation in different anatomical compartments (meninges and parenchyma). Inflammation was scored using the following scale as described: for meninges and parenchyma: 0, no infiltrating cells; 1, few infiltrating cells; 2, numerous infiltrating cells; and 3, widespread infiltration. For vessels: 0, no cuffed vessel; 1, one or two cuffed vessels per section; 2, three to five cuffed vessels per section and 3, more than five cuffed vessels per section. At least six serial sections of each spinal cord from each of five mice per group were scored and statistically analyzed by ANOVA.
# Infiltration of autoreactive T cells and associated mononuclear cells is a hallmark of EAE as well as MS. The inventor examined whether GTB treatment attenuated infiltration and inflammation in adoptively-transferred EAE mice. Mice receiving GTB from 8 dpt (onset of the acute phase) were sacrificed on 16 dpt. […] In contrast, vehicle was unable to inhibit the infiltration of inflammatory cells (FIG. 4A).
# [1] = tested on: Tyrosine hydroxylase (TH); experiment: MPTP mouse model of PD, Western blot of nigral TH; assay type: in vivo, mice; conditions: FIG. 9A-B
# Method: Six- to eight-week old C57BL/6 mice were purchased from Harlan (Indianapolis, Ind.). For acute MPTP intoxication, mice received four intraperitoneal (i.p.) injections of MPTP-HCl (18 mg/kg of free base; Sigma Chemical Co., St. Louis, Mo.) in saline at 2-h intervals. Control animals received only saline.
# GTB was mixed in 0.5% methylcellulose (MC) and from 3 h after the last injection of MPTP, mice were gavaged 100 μL GTB-mixed MC once daily using gavage needle. Therefore, control MPTP mice received only MC as vehicle.
# Immunoblot analysis for DJ-1 and TH was carried out. Briefly, cell homogenates were electrophoresed, proteins were transferred onto a nitrocellulose membrane, and bands were visualized with an Odyssey infrared scanner after immunolabeling with respective primary antibodies followed by infra-red fluorophore-tagged secondary antibody (Invitrogen).
# Tyrosine hydroxylase (TH), the key enzyme responsible for the production of dopamine, is present in dopaminergic neurons. MPTP-intoxication led to approximately 60% loss of nigral TH (FIG. 9A-B) compared with saline-injected controls.
structure (smiles),measurement,setting,value
"O=C(OCC(COC(=O)c1ccccc1)OC(=O)c1ccccc1)c1ccccc1 [GTB, glyceryl tribenzoate]",infiltration of inflammatory cells into the spinal cord (H&E),spinal cord of EAE mice; FIG. 4A,markedly inhibited the infiltration of inflammatory cells
same,quantitation of infiltration,spinal cord of EAE mice; FIG. 4B,dramatically reduced infiltration
same,appearance of cuffed vessels,spinal cord of EAE mice; FIG. 4C,dramatically reduced
same,nigral TH,[1]; GTB 25 mg/kg body wt/d,protection was evident
same,nigral TH,[1]; oral GTB in MPTP-intoxicated mice,protected nigral TH in a dose-dependent manner
